From US6218163A, “Stable biocatalysts for ester hydrolysis” (Thermogen, Inc., priority 1996, dated 2001)
Values belong to the compound of their own block, whether it stands above or below them.

Key:
Type in all cases: biochemical
[1] = test system: Thermus sp. T351 esterase E100; test: Inhibition by reaction components on the hydrolysis of p-nitrophenylproprionate by E100
Procedure: Measurement of E100 Enzyme Activity--Esterase activity is measured by monitoring the hydrolysis of p-nitrophenylproprionate (pNP), or in some cases MUB. Each substrate is dissolved in acetonitrile and added to the reaction mixture (100 μM final concentration) which contain 50 mM Tris HCl pH 8.5 adjusted for temperature dependent pH variation. Reactions are thermally equilibrated at 37° C. for 5 minutes prior to initiation of the reaction by addition of 10 μL of enzyme sample, while control reactions substituted equivalent amounts of BSA. The reaction is monitored spectrophotometrically at 405 nm ε=17 mM^-1 cm^-1 for pNP and 360 nm ε=7.9 mM^-1 cm^-1 for MUB.
The rates of enzyme catalyzed hydrolysis are corrected for the spontaneous hydrolysis of the substrate. Protein concentrations are determined by either the absorbance at 280 nm or by Lowery assay. Crude activity is determined by a colorimetric assay based on the hydrolysis of 5-bromo-4-chloro-3-indoyl esters suspended in a 0.7% agar matrix on microtiter plates. A 0.1 mg/ml solution of the indolyl derivative is dissolved in a minimal volume of acetonitrile and added to a warm solution of 0.7% agar containing 0.1M phosphate buffer pH 7.5. 10 μL of this solution is distributed to microtiter plates which, when cooled, could be used with as much as 100 μL of enzyme sample and incubated at temperatures from ambient to >65° C.

[2] = test system: Thermus sp. T351 esterase E101
[3] = test system: Thermus sp. T351 esterase E100; test: Kinetic analysis of E100: concentration-dependent initial rates of nitrophenyl proprionate hydrolysis; details: p-NP as substrate, pH 8.5, 50 mM Tris-HCl, 37° C.
Procedure: FIG. 6. Kinetic analysis of E100.
Determination of Kinetic Characteristics--Kinetic characteristics are determined by measuring the concentration dependent initial rates of enzyme catalyzed hydrolysis of nitrophenyl proprionate. Reactions are run at pH 8.5 in 50 mM Tris-HCl buffer equilibrated to 37° C. and initiated by addition of enzyme. Rates are determined from the absorbance changes due to formation of product nitrophenol at 405 nm. Rates are corrected for the spontaneous hydrolysis of substrate during the course of the reaction. Concentration vs. rate data are analyzed by both double reciprocal plots and by HanesWolff plots to determine Km, Vmax and Vmax/Km.

- Relative Rate ([1]; additive 10 mM, None = 100, substrate p-nitrophenylproprionate): 99%
Compound: OCCS [BME, β-mercaptoethanol]

Compound: O=C(O)CN(CCN(CC(=O)O)CC(=O)O)CC(=O)O [EDTA]
- Relative Rate ([1]; pH 8.5, 1000 µM): 96

Compound: O=S(=O)(F)Cc1ccccc1 [PMSF]
- Relative Rate ([1]; additive 0.1 mM, None = 100, substrate p-nitrophenylproprionate): 0%
- Inhibition of E101 (in words) [2]: inhibited

- Vmax [3]: 1.8×10^-5 Mmin^-1
- Km ([3]; Lineweaver-Burke and Eadie-Hofstee analysis): 72 µM
Compound: CCC(=O)Oc1ccc([N+](=O)[O-])cc1 [p-NP, p-nitrophenylproprionate]

Compound: Cc1ccc(S(=O)(=O)F)cc1 [tosyl fluoride]
- Inhibition of E100 (in words) [1]: effectively inhibited
